Experiments:
Assay type in all cases: cell-based
[1] = test system: KRAS G12V mutant human colorectal cancer cell SW620; assay: 3D cell proliferation inhibition assay, SW620; details: SW-620, 168 h, 3D culture, 7 days, CTG
Summary of the method: (§1)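 Seven-day 3D growth at 37 °C in low-adsorption wells, 5×10^2 cells/well except MKN1 (1×10^3), final compound range 10000–0.026 nM in 0.2% DMSO. CTG luminescence read-out; percent inhibition set against DMSO and medium-only wells, IC50 by curve fitting.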

[2] = biological target: T1, KRAS WT (expanded) protein in MKN1 cells (Homo sapiens, UniProt P01116); assay: KRAS degradation assay (Western Blot) in MKN1 cells; details: for DC50: 24 h; for Dmax: MKN-1, 24 h
T1 construct: endogenous in cells; host or cells: MKN1 (MKN-1)
T1 sequence (P01116 1-188 isoform P01116-2): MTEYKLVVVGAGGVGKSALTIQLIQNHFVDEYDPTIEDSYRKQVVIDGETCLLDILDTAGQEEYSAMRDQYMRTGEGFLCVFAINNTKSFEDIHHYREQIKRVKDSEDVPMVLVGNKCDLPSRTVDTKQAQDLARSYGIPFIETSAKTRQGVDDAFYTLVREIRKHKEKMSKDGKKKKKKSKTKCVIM
From the text: (§2) Test Example 5: KRAS G12C, KRAS G12D, KRAS G12V, KRAS G13D, and KRAS WT (Expanded) Degradation Assays
(§3) The degradation effect of the compounds on KRAS was investigated on KRAS G12C mutant human non-small cell lung cancer cell NCI-H358, KRAS G12D mutant human metastatic pancreatic cancer cell AsPc-1, KRAS G12D mutant human lung cancer cell A427, KRAS G12V mutant human colorectal cancer cell SW620, KRAS G12V mutant human lung cancer cell SW900, KRAS G13D mutant human colorectal cancer epithelial cell DLD-1, and KRAS WT human gastric cancer cell MKN-1. The specific procedures were as follows: 0.95 mL of cells were seeded into each well of a 24-well cell culture plate to achieve a cell density of 5×10^5 cells/well; and the cell plate was incubated in an incubator at 37° C. with 5% CO2 overnight. Then 50 μL of the compound solution after dilution was added to each of the wells with the corresponding cells, so that the final concentration of the compound was in a range of 0.03-3000 nM. The final concentration of DMSO was 0.25%. After the compounds were added, the cell plate was incubated in an incubator at 37° C. with 5% CO2 for 24 h. The culture medium in the 24-well cell culture plate was then removed, and the plate was washed twice with 1×PBS (KeyGEN). 120 μL of RIPA (strong) lysis buffer (Beyotime) (supplemented with 1 mM phenylmethylsulfonyl fluoride, a protease inhibitor mixture (Beyotime), and a protease phosphatase inhibitor mixture (Beyotime)) was added to lyse adherent SW900 cells at the bottom of the cell culture plate. After the plate was left to stand on ice for 30 min, the protein lysate in each well was transferred to a 1.5 mL centrifuge tube and centrifuged at 15000 g for 20 min at 4° C. The cell lysate supernatants after centrifugation were cryopreserved in a refrigerator at −80° C. for later use.
(§4) After the samples of the cell lysate supernatants that had been prepared were thawed from the refrigerator at −80° C., the total protein concentrations of the cell lysates were determined using a BCA protein quantification kit (Tiangen). The total protein concentrations of the samples were then adjusted to 0.5 μg/μL with PBS and 5×SDS-PAGE protein loading buffer (Beyotime), and the samples were incubated in a water bath at 100° C. for 15 min. The samples were then incubated in an ice bath for 5 min and centrifuged at 14000 g for 1 min at 4° C., and the supernatants were mixed well as loading samples for the Western Blot assay. The samples were loaded into wells of a 10% precast gel (KeyGEN) with a loading volume of 10 μL (total protein: 5 μg), a sufficient Tris-MOPS-SDS running buffer (Adamas) was added, and then electrophoresis was performed at a constant voltage of 120 V for 55 min. After the electrophoresis, the proteins on the gel were transferred to PVDF membranes at a constant current of 250 mA for 55 min. After the membrane transfer, the PVDF membranes were incubated in 1× Quick Block blocking buffer (Beyotime)at room temperature for 30 min. After the blocking, the PVDF membranes were separately incubated at 4° C. overnight with the KRAS antibody (Abcam) diluted in a ratio of 1:1000 and the β-actin antibody (Abcam) diluted in a ratio of 1:2000 in 5% BSA as the diluent, and then washed with 1×TBST buffer (2.4 g of Tris, 8.8 g of NaCl, 1.5 mL of Tween 20, with pH adjusted to 7.4, with the volume brought to 1 L) 3 times for 10 min/time. The membranes were incubated with a secondary antibody (Abcam) diluted in 5% BSA at room temperature for 2 h, and then washed with 1×TBST buffer 3 times for 10 min/time. Finally, the membranes were incubated with Clarity Western ECL Substrate (BIO-RAD) for 5 min for luminescence and color development, and a ChemiScope 6200 Touch chemiluminescence imaging system (Clinx) was used for color development and protein mapping. Gray value analysis of the protein maps was performed using the chemiluminescence analysis software (Clinx). […]

[3] = test system: KRAS WT human gastric cancer cell MKN1; assay: 3D cell proliferation inhibition assay, MKN1; details: MKN-1, 168 h, 3D culture, 7 days, CTG
Summary of the method: as §1

[4] = test system: KRAS G12D mutant human metastatic pancreatic cancer cell AsPc-1; assay: 3D cell proliferation inhibition assay, AsPc-1; details: ASPC1, 168 h, 3D culture, 7 days, CTG
Summary of the method: as §1

[5] = test system: KRAS G13D mutant human colorectal cancer epithelial cell DLD-1; assay: 3D cell proliferation inhibition assay, DLD-1; details: DLD-1, 168 h, 3D culture, 7 days, CTG
Summary of the method: as §1

[6] = biological target: T2, KRAS G13D protein in DLD-1 cells (Homo sapiens, UniProt P01116, G13D); assay: KRAS degradation assay (Western Blot) in DLD-1 cells; details: 24 h
T2 construct: endogenous in cells; host or cells: DLD-1
T2 sequence (P01116 1-188 isoform P01116-2 G13D): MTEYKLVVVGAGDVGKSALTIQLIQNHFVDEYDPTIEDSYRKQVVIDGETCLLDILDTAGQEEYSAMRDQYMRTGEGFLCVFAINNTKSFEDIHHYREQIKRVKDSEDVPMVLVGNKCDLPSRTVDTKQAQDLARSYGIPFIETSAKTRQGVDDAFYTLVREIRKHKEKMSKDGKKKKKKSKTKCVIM
From the text: as §2, §3, §4

[7] = biological target: T3, KRAS G12C protein in NCI-H358 cells (Homo sapiens, UniProt P01116, G12C); assay: KRAS degradation assay (Western Blot) in NCI-H358 cells; details: 24 h
T3 construct: endogenous in cells; host or cells: NCI-H358
T3 sequence (P01116 1-188 isoform P01116-2 G12C): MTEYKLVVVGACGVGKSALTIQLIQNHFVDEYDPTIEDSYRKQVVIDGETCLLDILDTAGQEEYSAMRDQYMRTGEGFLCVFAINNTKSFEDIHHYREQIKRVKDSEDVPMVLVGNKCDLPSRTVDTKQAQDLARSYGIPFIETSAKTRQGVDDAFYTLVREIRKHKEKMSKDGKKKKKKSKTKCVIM
From the text: as §2, §3, §4

[8] = biological target: T4, KRAS G12V protein in SW620 cells (Homo sapiens, UniProt P01116, G12V); assay: KRAS degradation assay (Western Blot) in SW620 cells; details: for DC50: 24 h; for Dmax: SW-620, 24 h
T4 construct: endogenous in cells; host or cells: SW620
T4 sequence (P01116 1-188 isoform P01116-2 G12V): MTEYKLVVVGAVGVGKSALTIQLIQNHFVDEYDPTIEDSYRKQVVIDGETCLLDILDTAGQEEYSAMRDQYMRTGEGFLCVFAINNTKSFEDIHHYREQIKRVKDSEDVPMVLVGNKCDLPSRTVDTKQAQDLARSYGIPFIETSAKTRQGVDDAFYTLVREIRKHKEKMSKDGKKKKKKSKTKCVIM
Summary of the method: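 Cells seeded at 5×10^5 cells/well, incubated overnight, then treated 24 h at 37 °C with compound (final 0.03–3000 nM, 0.25% DMSO). KRAS in lysates measured by Western blot with β-actin normalisation; degradation versus vehicle control fitted to give DC50 and Dmax.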

[9] = test system: KRAS G12C mutant human non-small cell lung cancer cell NCI-H358; assay: 3D cell proliferation inhibition assay, NCI-H358; details: NCI-H358, 168 h, 3D culture, 7 days, CTG
Summary of the method: as §1

[10] = biological target: T5, KRAS G12D protein in AsPc-1 cells (Homo sapiens, UniProt P01116, G12D); assay: KRAS degradation assay (Western Blot) in AsPc-1 cells; details: for DC50: 24 h; for Dmax: ASPC1, 24 h
T5 construct: endogenous in cells; host or cells: AsPc-1
T5 sequence (P01116 1-188 isoform P01116-2 G12D): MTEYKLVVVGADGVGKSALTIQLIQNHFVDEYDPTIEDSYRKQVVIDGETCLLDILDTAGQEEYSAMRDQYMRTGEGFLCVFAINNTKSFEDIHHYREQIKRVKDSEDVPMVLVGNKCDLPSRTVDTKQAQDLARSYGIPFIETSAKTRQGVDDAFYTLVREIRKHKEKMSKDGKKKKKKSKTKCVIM
From the text: as §2, §3, §4

| Compound | IC50 [1] | DC50 [2] | Dmax [2] | IC50 [3] | IC50 [4] | IC50 [5] | DC50 [6] | Dmax [6] | DC50 [7] | Dmax [7] | DC50 [8] | Dmax [8] | IC50 [9] | DC50 [10] | Dmax [10] |
| --- | --- | --- | --- | --- | --- | --- | --- | --- | --- | --- | --- | --- | --- | --- | --- |
| C#Cc1c(F)ccc2cc(O)cc(-c3ncc4c(N5CCC[C@@](C)(O)C5)nc(OC[C@H](C)CN5CCN(CC6CCC7(CC6)CCN(C(=O)c6ccc(OC)c(N8CCC(=O)NC8=O)c6)CC7)CC5)nc4c3F)c12 [Example 46, 1-(5-(9-((4-((R)-3-((7-(8-ethynyl-7-fluoro-3-hydroxynaphthalen-1-yl)-8-fluoro-4-((R)-3-hydroxy-3-methylpiperidin-1-yl)pyrido[4,3-d]pyrimidin-2-yl)oxy)-2-methylpropyl)piperazin-1-yl)methyl)-3-azaspiro[5.5]undecane-3-carbonyl)-2-methoxyphenyl)dihydropyrimidine-2,4(1H,3H)-dione] | 2.81 nM | 1.26 nM | 100% | 2.01 nM | 9.03 nM | 5.49 nM | 2.36 nM | 100% | 3.14 nM | 86.7% | 0.87 nM | 100% | 18.2 nM | – | – |
| C#Cc1c(F)ccc2cc(O)cc(-c3ncc4c(N(C)[C@H]5C[C@@H]5F)nc(OC[C@H](C)CN5CCN(CC6CCC7(CC6)CCN(C(=O)c6ccc(OC)c(N8CCC(=O)NC8=O)c6)CC7)CC5)nc4c3F)c12 [Example 50, 1-(5-(9-((4-((R)-3-((7-(8-ethynyl-7-fluoro-3-hydroxynaphthalen-1-yl)-8-fluoro-4-(((1S,2S)-2-fluorocyclopropyl)(methyl)amino)pyrido[4,3-d]pyrimidin-2-yl)oxy)-2-methylpropyl)piperazin-1-yl)methyl)-3-azaspiro[5.5]undecane-3-carbonyl)-2-methoxyphenyl)dihydropyrimidine-2,4(1H,3H)-dione] | 3.73 nM | – | – | 23.7 nM | 157 nM | 90.9 nM | 3.98 nM | 98% | 21.6 nM | 96.3% | 3.22 nM | 99.4% | 46.7 nM | 167 nM | 77.1% |
| C#Cc1c(F)ccc2cc(O)cc(-c3ncc4c(N5CCC[C@@](C)(O)C5)nc(OCC5(CN6CCN(CC7CCC8(CC7)CCN(C(=O)c7cc(N9CCC(=O)NC9=O)c(C)cc7F)CC8)CC6)CC5)nc4c3F)c12 [Example 91, (R)-1-(5-(9-((4-((1-(((7-(8-ethynyl-7-fluoro-3-hydroxynaphthalen-1-yl)-8-fluoro-4-(3-hydroxy-3-methylpiperidin-1-yl)pyrido[4,3-d]pyrimidin-2-yl)oxy)methyl)cyclopropyl)methyl)piperazin-1-yl)methyl)-3-azaspiro[5.5]undecane-3-carbonyl)-4-fluoro-2-methylphenyl)dihydropyrimidine-2,4(1H,3H)-dione] | 1.92 nM | 1.15 nM | 98.9% | 5.41 nM | 4.26 nM | 8.33 nM | 8.8 nM | 100% | 6.04 nM | 92.7% | 5.16 nM | 100% | 2.13 nM | – | – |
| [2H]C([2H])([2H])c1ccc(C(=O)N2CCC3(CCC(CN4CCN(CC5(COc6nc(N7CCC[C@@](C)(O)C7)c7cnc(-c8cc(O)cc9ccc(F)c(C#C)c89)c(F)c7n6)CC5)CC4)CC3)CC2)cc1N1CCC(=O)NC1=O [Example 111, (R)-1-(5-(9-((4-((1-(((7-(8-ethynyl-7-fluoro-3-hydroxynaphthalen-1-yl)-8-fluoro-4-(3-hydroxy-3-methylpiperidin-1-yl)pyrido[4,3-d]pyrimidin-2-yl)oxy)methyl)cyclopropyl)methyl)piperazin-1-yl)methyl)-3-azaspiro[5.5]undecane-3-carbonyl)-2-(methyl-d3)phenyl)dihydropyrimidine-2,4(1H,3H)-dione] | 1.12 nM | 0.69 nM | 99.9% | 2.15 nM | 4.68 nM | 5.88 nM | 6.78 nM | 99.3% | – | – | 1.65 nM | 100% | 2.5 nM | – | – |
| [2H]C([2H])([2H])c1ccc(C(=O)N2CCC3(CCC(CN4CCN(C[C@@H](C)COc5nc(N6CCC[C@@](C)(O)C6)c6cnc(-c7cc(O)cc8ccc(F)c(C#C)c78)c(F)c6n5)CC4)CC3)CC2)cc1N1CCC(=O)NC1=O [Example 132, 1-(5-(9-((4-((R)-3-((7-(8-ethynyl-7-fluoro-3-hydroxynaphthalen-1-yl)-8-fluoro-4-((R)-3-hydroxy-3-methylpiperidin-1-yl)pyrido[4,3-d]pyrimidin-2-yl)oxy)-2-methylpropyl)piperazin-1-yl)methyl)-3-azaspiro[5.5]undecane-3-carbonyl)-2-(methyl-d3)phenyl)dihydropyrimidine-2,4(1H,3H)-dione] | 0.43 nM | – | – | 4.31 nM | 9.75 nM | 7.7 nM | 5.6 nM | 100% | 1.37 nM | 100% | 2.42 nM | 100% | 6.2 nM | 25.2 nM | 95.3% |
| C#Cc1c(F)ccc2cc(O)cc(-c3ncc4c(N5CCC[C@@](C)(O)C5)nc(OCC5(CN6CCN(CC7CCC8(CC7)CCN(C(=O)c7ccc(CC)c(N9CCC(=O)NC9=O)c7)CC8)CC6)CC5)nc4c3F)c12 [Example 92, (R)-1-(2-ethyl-5-(9-((4-((1-(((7-(8-ethynyl-7-fluoro-3-hydroxynaphthalen-1-yl)-8-fluoro-4-(3-hydroxy-3-methylpiperidin-1-yl)pyrido[4,3-d]pyrimidin-2-yl)oxy)methyl)cyclopropyl)methyl)piperazin-1-yl)methyl)-3-azaspiro[5.5]undecane-3-carbonyl)phenyl)dihydropyrimidine-2,4(1H,3H)-dione] | 1.31 nM | 0.42 nM | 99% | 447 nM | 6.75 nM | 2.26 nM | – | – | – | – | 1.34 nM | 100% | 19.3 nM | – | – |

Reference: patent US20260167622A1, “PAN-KRAS DEGRADING AGENT, AND PREPARATION METHOD THEREFOR AND USE THEREOF” (LEADINGTAC PHARMACEUTICAL (SHAOXING) CO., LTD., priority 2022, published 2026)
